Test [1] can be described thus: Binding affinity to double strand AATT12 DNA by fluorescence titration.
Test [2] in a line: Stabilization of double strand AATT12 DNA assessed as change in melting temperature.
The nature of test [3]: Stabilization of double strand CGCG12 DNA assessed as change in melting temperature.
A short description of test [4]: Binding affinity to double strand CGCG12 DNA by fluorescence titration.

Each structure is given as a SMILES string.

`C#CCCCC(=O)N1CCC[C@H]1C(=O)N[C@@H](CCCNC(=N)N)C(=O)NCC(=O)N[C@@H](CCCNC(=N)N)CN1CCC[C@H]1C(N)=O` displayed a Ks in test [1] of 0.01 ×10⁵ /M. Further, the ΔTm in test [2] and in test [3] was 0 °C in each case.

Turning to `N=C(N)NCCC[C@@H](CN1CCC[C@H]1C(N)=O)NC(=O)CNC(=O)[C@H](CCCNC(=N)N)NC(=O)[C@@H]1CCCN1C(=O)CCCc1cn(CCCNc2c3ccccc3nc3ccccc23)nn1`, the values for the Ks in test [1] and in test [4] were 7.3 ×10⁵ /M and 3.6 ×10⁵ /M, respectively. For the same molecule, the thermal shift (ΔTm) in test [2] was found to be 8.1 °C; in test [3] it was 3.9 °C.

As to `[N-]=[N+]=NCCCNc1c2ccccc2nc2ccccc12`, the Ks in test [1] stood at 1.6 ×10⁵ /M; in test [4], 2 ×10⁵ /M. Moreover, the ΔTm in test [2] came to 3.1 °C; in test [3] it was 2 °C.

These data come from ChEMBL document CHEMBL1141725, “DNA-templated click chemistry for creation of novel DNA binding molecules” (Bioorg Med Chem Lett, 2008).
